According to patent US8440724B2, “Inhibiting neurotransmitter reuptake” (Mayo Foundation for Medical Education and Research, priority 2008, dated 2013):
“Also recorded” adds a separate entry of the source. Read-outs that look alike come from different tables or passages of the source.

Key:
[1] = system: rat 5-HT, NE and DA transport, synaptosomal preparations; experiment: Rat brain synaptosomal transport: rank order of potency; assay type: biochemical; details: from Ki values; S = 5HT, N = NE, D = DA
[2] = target: T1, rat dopamine transporter, synaptosomal preparations (Rattus norvegicus, UniProt P23977); experiment: Inhibition of [3H]DA reuptake in rat brain synaptosomes (striatum); assay type: biochemical
T1 construct: and striatal tissues for transport of dopamine; from tissue; host or cells: rat striatum synaptosomes (male Sprague-Dawley)
Description: (§1) The dissected tissues were separately homogenized in 20 volumes (cortical) or 40 volumes (striatal) of ice-cold, oxygenated HEPES buffer 0.32 M sucrose containing 11 mM glucose (pH 7.4) in a glass Potter-Elvehjem homogenizer with Teflon® pestle (8 strokes, 900 rpm). The homogenates were centrifuged at 1,000×g for 10 minutes. The resulting supernatant was decanted and further centrifuged at 20,000×g for 20 minutes at 4° C. […] The synaptosomal protein concentration was determined by using the BCA assay (Pierce Biotechnology Inc, Rockford, Ill.), according to the manufacturer's instructions. Synaptosomal protein (1.0-2.5 mg) was suspended in 1 mL oxygenated incubation buffer as defined above. Test amine compound was pre-incubated with the synaptosomal preparation for 30 minutes at 37° C. in a shaking water bath (80 oscillations/minute).

[3] = target: T2, rat serotonin transporter, synaptosomal preparations (Rattus norvegicus, UniProt P31652); experiment: Inhibition of [3H]5-HT reuptake in rat brain synaptosomes (frontal cortex); assay type: biochemical
T2 construct: from tissue; host or cells: rat frontal cortex synaptosomes (male Sprague-Dawley)
Description: as §1

[4] = target: T3, rat norepinephrine transport, synaptosomal preparations (Rattus norvegicus, UniProt Q63380); experiment: Inhibition of [3H]NE reuptake in rat brain synaptosomes (occipital cortex); assay type: biochemical
T3 construct: from tissue; host or cells: rat occipital cortex synaptosomes (male Sprague-Dawley)
Description: as §1

[5] = target: T4, human serotonin transporter (hSERT) (Homo sapiens, UniProt P31645); experiment: Radioligand binding to cloned hSERT, [3H]citalopram, HEK-293 cell membranes; details: for Binding at hSERT compared to PRC200-SS: in words
T4 construct: expressed in transfected cells; host or cells: HEK-293, stably transfected

hERG = hERG (Homo sapiens, UniProt Q12809); experiment: hERG assay: block of rubidium ion (Rb+) efflux from cells expressing hERG; details: for Blocking of hERG channel compared with PRC200-SS: in words
Description: Human “ether-a-go-go” (hERG) is an ion channel. Blockade of this channel can be predictive of causing cardiac arrhythmias in humans. hERG assays were performed to measure the ability of a compound to block rubidium ion (Rb^+) efflux from cells expressing hERG. Cells were pre-loaded with Rb^+, incubated with test compound, and then exposed to a buffer that opens the channel and allows the efflux of ions. Compounds as powder were dissolved in 100% DMSO to prepare 100 mM stock solutions. […] The stocks were stored at 23° C.
The range of doses for the test compounds was 30 nM through 100,000 nM.

Male Sprague-Dawley rats = experiment: Forced swim test in rats; assay type: in vivo, rat
Outline: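 Male Sprague-Dawley rats got a 15 min pretest swim, then a 5-minute test 24 h later. Immobility (floating, only head-keeping movements) and swimming scored as total counts per 5-min session; ANOVA with Tukey post-hoc test.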

CYP2D6 = target: T5, CYP2D6 (Homo sapiens, UniProt P10635); experiment: CYP2D6 inhibition, CYP2D6/AMMC kit (BD Biosciences), fluorescent substrate; assay type: in vitro ADME; details: for Potency of inhibition at CYP2D6, in words: compared with PRC200-SS
T5 construct: purchased BD Biosciences 459200
Description: This kit includes the use of a fluorescent P450 substrate (AMMC or 3-[2-(N,N-diethyl-N-methylamino)ethyl]-7-methoxy-4-methylcoumarin) and recombinant human P450.

[6] = Geometric Mean ± SEM, rat brain synaptosomes, read-out: Inhibitor Constant (Ki), DA transport
[7] = Geometric Mean ± SEM, rat brain synaptosomes, read-out: Inhibitor Constant (Ki), 5HT transport
[8] = Geometric Mean ± SEM, rat brain synaptosomes, read-out: Inhibitor Constant (Ki), NE transport
[9] = Geometric Mean ± SEM, HCl salts, read-out: Equilibrium Dissociation Constant (KD) for Transporter Binding, hSERT (S)

Sequence of hERG (Q12809 whole entry): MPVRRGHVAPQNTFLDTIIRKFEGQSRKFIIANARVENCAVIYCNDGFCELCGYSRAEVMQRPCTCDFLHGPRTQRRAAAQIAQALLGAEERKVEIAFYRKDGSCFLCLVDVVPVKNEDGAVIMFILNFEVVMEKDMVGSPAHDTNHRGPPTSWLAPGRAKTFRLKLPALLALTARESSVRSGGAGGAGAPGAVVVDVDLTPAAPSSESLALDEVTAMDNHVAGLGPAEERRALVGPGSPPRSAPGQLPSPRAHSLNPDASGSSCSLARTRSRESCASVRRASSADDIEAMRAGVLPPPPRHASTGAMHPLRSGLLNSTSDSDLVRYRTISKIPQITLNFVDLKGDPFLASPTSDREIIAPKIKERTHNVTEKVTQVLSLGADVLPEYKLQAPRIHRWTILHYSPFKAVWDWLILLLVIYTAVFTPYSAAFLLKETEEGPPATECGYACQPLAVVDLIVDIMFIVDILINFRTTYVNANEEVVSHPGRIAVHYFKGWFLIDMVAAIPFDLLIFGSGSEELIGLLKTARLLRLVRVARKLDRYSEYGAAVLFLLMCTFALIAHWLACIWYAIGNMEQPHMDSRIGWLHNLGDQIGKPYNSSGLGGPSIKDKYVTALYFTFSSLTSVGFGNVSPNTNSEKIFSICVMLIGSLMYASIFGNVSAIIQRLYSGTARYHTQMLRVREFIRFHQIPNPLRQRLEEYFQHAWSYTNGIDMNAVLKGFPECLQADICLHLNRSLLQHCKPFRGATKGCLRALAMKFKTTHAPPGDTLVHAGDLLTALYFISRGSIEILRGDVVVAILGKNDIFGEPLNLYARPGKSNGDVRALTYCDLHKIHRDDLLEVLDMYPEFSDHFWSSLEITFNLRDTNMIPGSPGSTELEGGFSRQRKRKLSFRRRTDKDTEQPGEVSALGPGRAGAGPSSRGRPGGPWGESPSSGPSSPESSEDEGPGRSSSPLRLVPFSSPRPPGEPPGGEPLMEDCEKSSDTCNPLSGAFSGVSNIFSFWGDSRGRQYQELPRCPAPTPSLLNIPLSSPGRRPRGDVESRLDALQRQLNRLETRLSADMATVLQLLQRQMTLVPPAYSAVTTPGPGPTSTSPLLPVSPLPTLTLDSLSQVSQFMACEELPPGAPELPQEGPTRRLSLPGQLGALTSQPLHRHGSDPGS
T4 sequence (P31645 whole entry): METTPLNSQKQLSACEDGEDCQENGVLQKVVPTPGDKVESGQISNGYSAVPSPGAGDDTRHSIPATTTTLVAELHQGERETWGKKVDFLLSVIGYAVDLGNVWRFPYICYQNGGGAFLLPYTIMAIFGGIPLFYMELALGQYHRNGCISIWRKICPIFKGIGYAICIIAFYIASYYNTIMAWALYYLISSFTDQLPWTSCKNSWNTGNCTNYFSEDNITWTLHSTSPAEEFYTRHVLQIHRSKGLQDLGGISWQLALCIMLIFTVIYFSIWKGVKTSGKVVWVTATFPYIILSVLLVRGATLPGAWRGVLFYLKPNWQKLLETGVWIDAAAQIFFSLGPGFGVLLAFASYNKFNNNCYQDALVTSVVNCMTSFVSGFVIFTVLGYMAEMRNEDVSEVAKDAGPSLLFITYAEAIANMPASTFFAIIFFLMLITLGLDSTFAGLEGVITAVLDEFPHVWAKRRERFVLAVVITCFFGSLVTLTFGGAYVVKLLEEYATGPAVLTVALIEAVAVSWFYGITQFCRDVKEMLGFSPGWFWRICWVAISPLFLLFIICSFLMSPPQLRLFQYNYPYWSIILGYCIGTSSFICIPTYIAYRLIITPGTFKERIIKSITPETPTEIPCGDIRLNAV
T3 sequence (Q63380 1-617): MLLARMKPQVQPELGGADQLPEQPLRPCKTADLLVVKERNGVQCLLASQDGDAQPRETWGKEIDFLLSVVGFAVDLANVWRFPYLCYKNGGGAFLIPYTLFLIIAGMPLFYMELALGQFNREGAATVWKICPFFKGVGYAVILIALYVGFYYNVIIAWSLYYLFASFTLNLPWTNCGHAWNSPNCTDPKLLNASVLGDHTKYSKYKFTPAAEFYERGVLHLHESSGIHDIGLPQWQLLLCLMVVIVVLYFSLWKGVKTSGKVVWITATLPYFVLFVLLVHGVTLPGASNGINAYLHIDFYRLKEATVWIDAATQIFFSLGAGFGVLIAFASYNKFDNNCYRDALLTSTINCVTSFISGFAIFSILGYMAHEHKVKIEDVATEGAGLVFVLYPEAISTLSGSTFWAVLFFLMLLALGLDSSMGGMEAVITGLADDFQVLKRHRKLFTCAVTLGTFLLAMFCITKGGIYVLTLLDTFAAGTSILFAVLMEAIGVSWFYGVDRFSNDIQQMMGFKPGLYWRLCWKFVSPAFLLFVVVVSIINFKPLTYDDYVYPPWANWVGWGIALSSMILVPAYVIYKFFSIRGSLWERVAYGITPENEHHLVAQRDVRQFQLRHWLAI
T2 sequence (P31652 whole entry): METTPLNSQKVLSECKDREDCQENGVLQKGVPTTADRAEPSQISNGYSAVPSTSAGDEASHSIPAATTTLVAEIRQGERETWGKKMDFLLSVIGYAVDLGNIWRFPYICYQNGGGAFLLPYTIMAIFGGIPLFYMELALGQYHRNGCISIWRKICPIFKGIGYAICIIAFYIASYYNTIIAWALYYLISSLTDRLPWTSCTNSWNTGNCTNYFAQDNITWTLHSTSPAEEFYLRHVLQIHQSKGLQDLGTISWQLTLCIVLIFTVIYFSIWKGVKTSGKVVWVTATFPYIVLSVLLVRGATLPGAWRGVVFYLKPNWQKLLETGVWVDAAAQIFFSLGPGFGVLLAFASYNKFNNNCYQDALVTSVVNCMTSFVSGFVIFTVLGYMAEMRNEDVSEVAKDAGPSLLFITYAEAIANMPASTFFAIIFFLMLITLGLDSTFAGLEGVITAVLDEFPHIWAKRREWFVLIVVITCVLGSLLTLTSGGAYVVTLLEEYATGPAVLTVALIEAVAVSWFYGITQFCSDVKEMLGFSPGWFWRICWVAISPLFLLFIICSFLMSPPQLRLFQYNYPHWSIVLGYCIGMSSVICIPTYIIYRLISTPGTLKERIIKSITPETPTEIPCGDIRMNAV
T1 sequence (P23977 whole entry): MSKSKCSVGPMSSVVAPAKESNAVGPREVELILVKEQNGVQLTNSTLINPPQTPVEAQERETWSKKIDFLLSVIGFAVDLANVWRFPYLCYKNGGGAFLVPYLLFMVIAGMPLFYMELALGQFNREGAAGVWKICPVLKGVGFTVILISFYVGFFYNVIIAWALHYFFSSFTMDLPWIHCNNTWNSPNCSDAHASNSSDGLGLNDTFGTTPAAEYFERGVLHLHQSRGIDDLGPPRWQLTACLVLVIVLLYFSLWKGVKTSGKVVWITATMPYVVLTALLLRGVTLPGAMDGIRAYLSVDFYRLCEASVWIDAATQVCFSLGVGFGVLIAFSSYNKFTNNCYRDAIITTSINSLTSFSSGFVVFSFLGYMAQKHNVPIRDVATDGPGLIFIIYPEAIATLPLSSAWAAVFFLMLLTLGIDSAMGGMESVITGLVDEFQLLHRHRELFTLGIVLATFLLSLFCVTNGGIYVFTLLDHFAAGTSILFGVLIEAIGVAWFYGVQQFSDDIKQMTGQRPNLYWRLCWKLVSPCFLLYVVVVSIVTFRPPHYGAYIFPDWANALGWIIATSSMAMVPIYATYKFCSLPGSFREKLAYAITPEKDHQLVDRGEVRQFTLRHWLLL
T5 sequence (P10635 whole entry): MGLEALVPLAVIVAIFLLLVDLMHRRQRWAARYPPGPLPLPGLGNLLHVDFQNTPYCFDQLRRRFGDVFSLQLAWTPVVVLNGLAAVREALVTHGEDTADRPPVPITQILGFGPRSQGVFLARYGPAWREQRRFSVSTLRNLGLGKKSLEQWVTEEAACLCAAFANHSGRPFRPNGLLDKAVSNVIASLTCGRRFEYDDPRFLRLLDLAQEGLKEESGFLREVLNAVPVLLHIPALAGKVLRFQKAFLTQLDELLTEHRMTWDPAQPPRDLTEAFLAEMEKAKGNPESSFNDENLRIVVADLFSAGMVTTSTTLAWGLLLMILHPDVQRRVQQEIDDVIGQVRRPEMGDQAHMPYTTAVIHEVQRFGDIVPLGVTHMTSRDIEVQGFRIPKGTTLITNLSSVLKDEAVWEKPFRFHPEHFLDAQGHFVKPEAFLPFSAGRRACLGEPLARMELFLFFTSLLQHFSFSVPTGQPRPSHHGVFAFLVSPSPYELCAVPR

Compound	Potency (rank order, transport into rat brain synaptosomal preparations) [1]	Ki [2, 6] [nM]	Ki [3] [nM]	Kd [5] [nM]	Binding at hSERT compared to PRC200-SS [5]	Ki [3, 7] [nM]	Ki [4, 8] [nM]	Kd [5, 9] [nM]	IC50 (hERG) [nM]	Antidepressant activity in forced swim test compared with imipramine (15 mg/kg IP) (Male Sprague-Dawley rats; 5 mg/kg IP, FIG. 12A)	Immobility in forced swim test vs saline (Male Sprague-Dawley rats; 5 mg/kg IP)	Swimming in forced swim test vs saline (Male Sprague-Dawley rats; 5 mg/kg IP)	also measured
CNCC(c1ccc2ccccc2c1)C(F)c1ccccc1 (racemic) [MCJ001-F-(±)-RR, (2R,3R/2S,3S)-3-fluoro-N-methyl-2-(naphthalen-2-yl)-3-phenylpropan-1-amine]	N > S > D	250 ± 9	90 ± 7	3.9 ± 0.1	greater binding at hSERT	–	–	–	–	–	–	–	Ki [4]: 47 ± 5 nM
CNC[C@H](c1ccc2ccccc2c1)[C@H](OCCCCCO[C@H](c1ccccc1)[C@H](CNC)c1ccc2ccccc2c1)c1ccccc1 [MCJ001-Dimer5-SS, (2S,2′S,3S,3′S)-3,3′-(pentane-1,5-diylbis(oxy))bis(N-methyl-2-(naphthalen-2-yl)-3-phenylpropan-1-amine)]	S > N > D	800 ± 300	–	–	–	150 ± 10	200 ± 30	140 ± 30	–	–	–	–	–
CNC[C@H](c1ccc2ccccc2c1)[C@@H](F)c1ccccc1 [MCJ001-F-RS, (2S,3R)-3-fluoro-N-methyl-2-(naphthalen-2-yl)-3-phenylpropan-1-amine]	S = N > D	–	9 ± 1.5	2.8 ± 0.3	greater binding at hSERT	–	–	–	92400	antidepressant activity that was similar to that observed in rats treated with the positive control	–	–	Blocking of hERG channel compared with PRC200-SS (hERG): weaker than PRC200-SS at blocking this channel; Ki [2]: 58 ± 6 nM; Immobility in forced swim test, 5 mg/kg IP vs 5 mg/kg PO of the same compound (Male Sprague-Dawley rats): statistically (P<0.02) more swimming and less immobility; Swimming in forced swim test, 5 mg/kg IP vs 5 mg/kg PO of the same compound (Male Sprague-Dawley rats): statistically (P<0.02) more swimming and less immobility; Climbing in forced swim test vs saline (Male Sprague-Dawley rats; 5 mg/kg IP): statistically (P<0.02) more swimming and climbing; Immobility in forced swim test vs saline (Male Sprague-Dawley rats; 5 mg/kg IP, 5 mg/kg): statistically (P<0.04) less immobility; also recorded: statistically (P<0.02) less immobility; Swimming in forced swim test vs saline (Male Sprague-Dawley rats; 5 mg/kg IP, 5 mg/kg): statistically (P<0.04) more swimming behavior; also recorded: statistically (P<0.02) more swimming and climbing; Immobility in forced swim test vs imipramine (15 mg/kg IP) (Male Sprague-Dawley rats; 5 mg/kg IP, FIG. 12A): statistically (P<0.04) less immobility than rats treated with imipramine; Climbing in forced swim test vs saline (Male Sprague-Dawley rats; 5 mg/kg PO): statistically (P<0.02) more swimming and climbing; Immobility in forced swim test vs saline (Male Sprague-Dawley rats; 5 mg/kg PO): statistically (P<0.02) less immobility; Swimming in forced swim test vs saline (Male Sprague-Dawley rats; 5 mg/kg PO): statistically (P<0.02) more swimming and climbing; Ki [4]: 9 ± 1 nM; Potency of inhibition at CYP2D6, in words (CYP2D6): markedly reduced the potency of inhibition at CYP2D6; IC50 (CYP2D6; recombinant human P450, AMMC substrate, read-out: Mean CYP2D6 (IC50)): 160 nM
CNC[C@@H](c1ccc2ccccc2c1)[C@H](F)c1ccccc1 [MCJ001-F-SR, (2R,3S)-3-fluoro-N-methyl-2-(naphthalen-2-yl)-3-phenylpropan-1-amine]	S > N > D	130 ± 20	53 ± 12	130 ± 20	much more weakly at hNET and hSERT	–	110 ± 20	–	94000	antidepressant activity that was similar to that observed in rats treated with the positive control	statistically (P<0.04) less immobility	statistically (P<0.04) more swimming behavior	Blocking of hERG channel compared with PRC200-SS (hERG): weaker than PRC200-SS at blocking this channel
CNC[C@H](c1ccc2ccccc2c1)[C@@H](N=[N+]=[N-])c1ccccc1 [MCJ001-N3-RS, (2S,3R)-3-azido-N-methyl-2-(naphthalen-2-yl)-3-phenylpropan-1-amine]	N > S > D	270 ± 50	–	–	–	88 ± 10	56 ± 3	124 ± 9	39200	antidepressant activity that was similar to that observed in rats treated with the positive control	statistically (P<0.04) less immobility	statistically (P<0.04) more swimming behavior	IC50 (CYP2D6): 4000 nM
CNC[C@@H](c1ccc2ccccc2c1)[C@H](N=[N+]=[N-])c1ccccc1 [MCJ001-N3-SR, (2R,3S)-3-azido-N-methyl-2-(naphthalen-2-yl)-3-phenylpropan-1-amine]	N > S > D	2000 ± 300	–	–	–	640 ± 50	250 ± 20	380 ± 40	–	–	–	–	–
CNC[C@H](c1ccc2ccccc2c1)[C@H](OC)c1ccccc1 [MCJ001-OMe-SS, (2S,3S)-3-methoxy-N-methyl-2-(naphthalen-2-yl)-3-phenylpropan-1-amine]	S > N > D	46 ± 5	–	–	–	12.8 ± 0.9	24 ± 2	13 ± 2	–	antidepressant activity that was similar to that observed in rats treated with the positive control	statistically (P<0.04) less immobility	statistically (P<0.04) more swimming behavior	Potency of inhibition at CYP2D6, in words (CYP2D6): markedly reduced the potency of inhibition at CYP2D6
CN(C)C[C@H](c1ccc2ccccc2c1)[C@H](N)c1ccccc1 [MCJ002-NH2-SS, (2S,3S)-N1,N1-dimethyl-2-(naphthalen-2-yl)-3-phenylpropane-1,3-diamine]	–	–	–	–	greater binding at hSERT	–	–	2.4 ± 0.3	67900	antidepressant activity that was similar to that observed in rats treated with the positive control	statistically (P<0.04) less immobility	statistically (P<0.04) more swimming behavior	–
